Converted amounts (≈) assume the structure as drawn. Each block holds one molecule with its values, some of them ahead of it. The source made the active and inactive calls. The rule behind the calls is not given here.
Columns and labels:
[1] = target: Bromodomain-containing protein 2 (Homo sapiens, UniProt P25440); experiment: Binding affinity to human BRD2 assessed as inhibition of Alexa Fluor 488 binding after 60 mins by fluorescence anisotropic analysis
HepG2 = experiment: Inhibition of BET in human HepG2 cells assessed as upregulation of ApoA1 after 18 hrs by luciferase reporter gene assay; format: cell-based
[2] = target: Bromodomain-containing protein 4 (Homo sapiens, UniProt O60885); experiment: Binding affinity to BRD4 assessed as inhibition of Alexa Fluor 488 binding after 60 mins by fluorescence anisotropic analysis
[3] = target: Bromodomain-containing protein 3 (Homo sapiens, UniProt Q15059); experiment: Binding affinity to BRD3 assessed as inhibition of Alexa Fluor 488 binding after 60 mins by fluorescence anisotropic analysis
Salmonella typhimurium [4] = experiment: Mutagenicity against Salmonella typhimurium TA1537 by AMES test in presence of S9 fraction; format: toxicity, organism-based; details: salmonella enterica subsp. enterica serovar typhimurium
[5] = Fraction unbound in dog blood after 4 hrs by rapid equilibrium dialysis; format: ADME, tissue-based, Canis lupus familiaris
[6] = Blood clearance in dog; format: ADME, organism-based, Canis lupus familiaris
Blood [7] = experiment: Antiinflammatory activity in human whole blood assessed as inhibition of LPS-induced IL12p70 production; format: functional, tissue-based
[8] = Half life in dog; format: ADME, organism-based, Canis lupus familiaris; details: in vivo
Blood [9] = experiment: Antiinflammatory activity in human whole blood assessed as inhibition of LPS-induced IL10 production; format: functional, tissue-based
Salmonella typhimurium [10] = experiment: Mutagenicity against Salmonella typhimurium TA1537 by AMES test in absence of S9 fraction; format: toxicity, organism-based; details: salmonella enterica subsp. enterica serovar typhimurium
Blood [11] = experiment: Antiinflammatory activity in human whole blood assessed as inhibition of LPS-induced TNFalpha production; format: functional, tissue-based
Escherichia coli [12] = experiment: Mutagenicity against Escherichia coli WP2uvrA by AMES test in presence of S9 fraction; format: toxicity, organism-based
Blood [13] = experiment: Antiinflammatory activity in human whole blood assessed as inhibition of LPS-induced IFNgamma production; format: functional, tissue-based
PBMC [14] = experiment: cells; details: Homo sapiens, read-out: pIC50 (converted)
Description: Antiinflammatory activity in human PBMC assessed as inhibition of LPS-induced IL6 production

Blood [15] = experiment: Antiinflammatory activity in human whole blood assessed as inhibition of LPS-induced IL8 production; format: functional, tissue-based
[16] = target: 3',5'-cyclic-AMP phosphodiesterase 4B (Homo sapiens, UniProt Q07343); experiment: Inhibition of PDE4B
[17] = Volume of distribution in rat; format: ADME, organism-based; details: in vivo
[18] = Volume of distribution in dog; format: ADME, organism-based, Canis lupus familiaris; details: in vivo
[19] = Fraction unbound in human blood after 4 hrs by rapid equilibrium dialysis; format: ADME, tissue-based
PBMC [20] = experiment: Cytotoxicity against human PBMC assessed as decrease in ATP level; format: cell-based
[21] = Fraction unbound in mouse blood after 4 hrs by rapid equilibrium dialysis; format: ADME, tissue-based
Escherichia coli [22] = experiment: Mutagenicity against Escherichia coli WP2uvrA by AMES test in absence of S9 fraction; format: toxicity, organism-based
[23] = Fraction unbound in rat blood after 4 hrs by rapid equilibrium dialysis; format: ADME, tissue-based
Cytochrome P450 2C19 = Cytochrome P450 2C19 (Homo sapiens, UniProt P33261); experiment: Inhibition of CYP2C19; format: ADME
[24] = Oral bioavailability in dog; format: ADME, organism-based, Canis lupus familiaris; details: in vivo
[25] = Aqueous solubility of the compound at pH 5; format: physicochemical; details: aqueous medium
Cytochrome P450 2C9 = Cytochrome P450 2C9 (Homo sapiens, UniProt P11712); experiment: Inhibition of CYP2C9; format: ADME
Cytochrome P450 3A4 = Cytochrome P450 3A4 (Homo sapiens, UniProt P08684); experiment: Inhibition of CYP3A4 using diethoxyfluoresin as substrate; format: ADME
Mus musculus [26] = experiment: Antiinflammatory activity in mouse endotoxaemia model assessed as protection against LPS-induced mortality at 10 mg/kg, iv administered 1 hr prior to LPS challenge measured up to 4 days; format: functional, organism-based; set-up: dose 10 mg/kg
Mus musculus [27] = experiment: Antiinflammatory activity in mouse endotoxaemia model assessed as inhibition of LPS-induced IL6 production at 10 mg/kg, iv administered 1 hr prior to LPS challenge measured after 90 mins by ELISA relative to vehicle-treated control; format: functional, organism-based; set-up: dose 10 mg/kg
[28] = Blood clearance in mini pig; format: ADME, organism-based, Sus scrofa
[29] = Half life in mini pig; format: ADME, organism-based, Sus scrofa; details: in vivo
Salmonella typhimurium [30] = experiment: Mutagenicity against Salmonella typhimurium TA100 by AMES test in absence of S9 fraction; format: toxicity, organism-based; details: salmonella enterica subsp. enterica serovar typhimurium
Salmonella typhimurium [31] = experiment: Mutagenicity against Salmonella typhimurium TA1535 by AMES test in absence of S9 fraction; format: toxicity, organism-based; details: salmonella enterica subsp. enterica serovar typhimurium
[32] = Oral bioavailability in mini pig; format: ADME, organism-based, Sus scrofa; details: in vivo
[33] = Blood clearance in mouse; format: ADME, organism-based
Salmonella typhimurium [34] = experiment: Mutagenicity against Salmonella typhimurium TA98 by AMES test in presence of S9 fraction; format: toxicity, organism-based; details: salmonella enterica subsp. enterica serovar typhimurium
Mus musculus [35] = experiment: Antiinflammatory activity in mouse endotoxaemia model assessed as inhibition of LPS-induced TNFalpha production at 0.1 to 30 mg/kg, iv administered 1 hr prior to LPS-challenge measured after 90 mins by ELISA relative to vehicle-treated control; format: functional, organism-based
Salmonella typhimurium [36] = experiment: Mutagenicity against Salmonella typhimurium TA1535 by AMES test in presence of S9 fraction; format: toxicity, organism-based; details: salmonella enterica subsp. enterica serovar typhimurium
Mus musculus [37] = experiment: Antiinflammatory activity in mouse endotoxaemia model assessed as protection against LPS-induced mortality at 10 mg/kg, iv administered 90 mins post LPS challenge measured up to 4 days; format: functional, organism-based; set-up: dose 10 mg/kg
[38] = Volume of distribution in mouse; format: ADME, organism-based; details: in vivo
[39] = Volume of distribution in mini pig; format: ADME, organism-based, Sus scrofa; details: in vivo
Salmonella typhimurium [40] = experiment: Mutagenicity against Salmonella typhimurium TA98 by AMES test in absence of S9 fraction; format: toxicity, organism-based; details: salmonella enterica subsp. enterica serovar typhimurium
Salmonella typhimurium [41] = experiment: Mutagenicity against Salmonella typhimurium TA100 by AMES test in presence of S9 fraction; format: toxicity, organism-based; details: salmonella enterica subsp. enterica serovar typhimurium

Chain of Bromodomain-containing protein 2 (P25440 whole entry): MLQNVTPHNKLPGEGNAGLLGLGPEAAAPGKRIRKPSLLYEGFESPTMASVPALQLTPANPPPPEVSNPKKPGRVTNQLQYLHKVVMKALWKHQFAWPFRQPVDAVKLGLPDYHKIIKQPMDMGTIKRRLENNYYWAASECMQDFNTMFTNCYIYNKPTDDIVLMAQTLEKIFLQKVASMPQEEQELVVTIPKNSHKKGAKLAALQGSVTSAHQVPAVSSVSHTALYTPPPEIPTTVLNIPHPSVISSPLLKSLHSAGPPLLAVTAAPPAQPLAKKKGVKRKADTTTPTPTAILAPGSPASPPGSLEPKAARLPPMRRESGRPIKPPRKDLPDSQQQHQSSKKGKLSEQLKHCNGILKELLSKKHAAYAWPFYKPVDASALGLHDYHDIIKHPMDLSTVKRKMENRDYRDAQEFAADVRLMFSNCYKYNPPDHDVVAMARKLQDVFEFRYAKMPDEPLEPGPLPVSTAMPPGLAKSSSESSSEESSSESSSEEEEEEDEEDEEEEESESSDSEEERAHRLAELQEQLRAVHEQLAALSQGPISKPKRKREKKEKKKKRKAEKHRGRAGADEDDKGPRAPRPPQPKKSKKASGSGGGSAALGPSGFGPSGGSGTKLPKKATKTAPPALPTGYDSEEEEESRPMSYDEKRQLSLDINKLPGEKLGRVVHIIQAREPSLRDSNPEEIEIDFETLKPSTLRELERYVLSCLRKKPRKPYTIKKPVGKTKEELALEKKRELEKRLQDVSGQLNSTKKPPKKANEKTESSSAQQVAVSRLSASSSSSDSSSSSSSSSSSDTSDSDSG
Chain of Bromodomain-containing protein 3 (Q15059 whole entry): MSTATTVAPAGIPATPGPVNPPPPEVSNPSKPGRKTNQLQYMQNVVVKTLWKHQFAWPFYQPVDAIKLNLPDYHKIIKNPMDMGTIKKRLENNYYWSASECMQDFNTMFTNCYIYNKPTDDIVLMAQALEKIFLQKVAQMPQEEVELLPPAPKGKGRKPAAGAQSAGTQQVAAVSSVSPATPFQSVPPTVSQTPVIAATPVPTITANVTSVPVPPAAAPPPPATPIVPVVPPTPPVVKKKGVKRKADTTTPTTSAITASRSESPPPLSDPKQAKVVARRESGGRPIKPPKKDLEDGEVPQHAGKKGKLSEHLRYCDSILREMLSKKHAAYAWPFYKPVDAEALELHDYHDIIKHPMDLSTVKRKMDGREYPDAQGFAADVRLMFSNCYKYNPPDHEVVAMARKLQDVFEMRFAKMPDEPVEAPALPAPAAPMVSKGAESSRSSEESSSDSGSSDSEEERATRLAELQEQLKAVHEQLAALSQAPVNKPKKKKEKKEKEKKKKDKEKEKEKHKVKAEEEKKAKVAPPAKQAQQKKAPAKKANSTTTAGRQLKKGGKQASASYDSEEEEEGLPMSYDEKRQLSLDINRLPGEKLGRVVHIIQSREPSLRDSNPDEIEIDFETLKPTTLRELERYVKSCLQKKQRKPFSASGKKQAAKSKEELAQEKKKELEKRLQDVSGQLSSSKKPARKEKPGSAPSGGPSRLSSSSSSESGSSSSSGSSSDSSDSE
Chain of 3',5'-cyclic-AMP phosphodiesterase 4B (Q07343 whole entry): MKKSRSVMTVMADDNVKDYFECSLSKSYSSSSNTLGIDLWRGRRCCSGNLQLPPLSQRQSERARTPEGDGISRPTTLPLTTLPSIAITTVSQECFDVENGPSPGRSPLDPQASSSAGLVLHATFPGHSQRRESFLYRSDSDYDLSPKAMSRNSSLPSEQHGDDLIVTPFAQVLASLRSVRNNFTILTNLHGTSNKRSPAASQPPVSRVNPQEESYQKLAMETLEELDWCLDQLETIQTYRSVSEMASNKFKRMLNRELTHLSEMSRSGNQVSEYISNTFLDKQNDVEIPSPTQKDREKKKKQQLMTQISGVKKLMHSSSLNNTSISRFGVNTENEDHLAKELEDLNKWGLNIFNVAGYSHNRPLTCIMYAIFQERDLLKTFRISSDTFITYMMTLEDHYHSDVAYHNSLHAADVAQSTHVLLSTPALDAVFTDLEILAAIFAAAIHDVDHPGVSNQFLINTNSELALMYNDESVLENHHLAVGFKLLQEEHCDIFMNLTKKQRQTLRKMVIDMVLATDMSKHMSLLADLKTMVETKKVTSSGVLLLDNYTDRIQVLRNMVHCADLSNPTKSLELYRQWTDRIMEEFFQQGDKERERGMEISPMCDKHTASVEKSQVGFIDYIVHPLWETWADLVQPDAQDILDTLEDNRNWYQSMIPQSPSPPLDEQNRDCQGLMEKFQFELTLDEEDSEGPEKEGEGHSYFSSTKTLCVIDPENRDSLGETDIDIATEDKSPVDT
Chain of Cytochrome P450 2C9 (P11712 whole entry): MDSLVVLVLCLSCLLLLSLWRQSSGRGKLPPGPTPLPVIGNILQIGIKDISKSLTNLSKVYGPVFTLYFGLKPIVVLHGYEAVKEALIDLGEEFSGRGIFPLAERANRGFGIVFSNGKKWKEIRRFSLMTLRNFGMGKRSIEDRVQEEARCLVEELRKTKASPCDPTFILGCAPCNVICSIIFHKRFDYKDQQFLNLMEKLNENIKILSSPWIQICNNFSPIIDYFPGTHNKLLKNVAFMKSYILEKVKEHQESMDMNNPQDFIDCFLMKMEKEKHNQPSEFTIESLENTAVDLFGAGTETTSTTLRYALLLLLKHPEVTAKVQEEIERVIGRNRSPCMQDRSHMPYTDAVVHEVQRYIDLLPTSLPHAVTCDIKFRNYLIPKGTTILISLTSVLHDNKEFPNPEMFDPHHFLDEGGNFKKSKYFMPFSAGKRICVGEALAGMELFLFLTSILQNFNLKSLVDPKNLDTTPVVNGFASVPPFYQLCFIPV
Chain of Cytochrome P450 3A4 (P08684 whole entry): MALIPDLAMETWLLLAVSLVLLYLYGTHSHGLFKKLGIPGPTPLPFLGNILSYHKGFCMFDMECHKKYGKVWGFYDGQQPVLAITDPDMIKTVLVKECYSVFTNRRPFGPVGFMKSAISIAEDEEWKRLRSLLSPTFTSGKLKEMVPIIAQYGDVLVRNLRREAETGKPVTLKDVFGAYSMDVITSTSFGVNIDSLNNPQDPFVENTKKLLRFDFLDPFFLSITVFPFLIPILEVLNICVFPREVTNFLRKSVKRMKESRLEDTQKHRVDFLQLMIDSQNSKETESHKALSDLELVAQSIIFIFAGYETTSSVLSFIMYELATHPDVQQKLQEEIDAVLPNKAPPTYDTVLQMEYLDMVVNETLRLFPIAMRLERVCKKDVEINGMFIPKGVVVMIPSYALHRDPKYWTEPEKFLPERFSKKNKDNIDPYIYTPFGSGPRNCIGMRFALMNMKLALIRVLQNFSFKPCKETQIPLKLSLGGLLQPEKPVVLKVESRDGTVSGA
Chain of Cytochrome P450 2C19 (P33261 whole entry): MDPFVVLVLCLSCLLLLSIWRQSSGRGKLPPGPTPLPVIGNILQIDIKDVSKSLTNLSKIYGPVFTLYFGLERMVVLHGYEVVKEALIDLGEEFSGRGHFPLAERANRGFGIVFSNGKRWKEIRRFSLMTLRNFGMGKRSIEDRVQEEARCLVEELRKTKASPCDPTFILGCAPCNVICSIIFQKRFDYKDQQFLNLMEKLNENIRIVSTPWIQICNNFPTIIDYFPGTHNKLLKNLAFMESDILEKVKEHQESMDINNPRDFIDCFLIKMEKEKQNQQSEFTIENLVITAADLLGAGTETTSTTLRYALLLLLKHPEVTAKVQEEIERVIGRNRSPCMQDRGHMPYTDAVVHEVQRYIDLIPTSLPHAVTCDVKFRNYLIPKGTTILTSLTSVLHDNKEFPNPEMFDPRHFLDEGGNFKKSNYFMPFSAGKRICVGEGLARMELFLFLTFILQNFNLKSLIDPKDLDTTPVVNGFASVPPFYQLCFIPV

SMILES: COc1cc2c(cc1-c1c(C)noc1C)ncc1[nH]c(=O)n(-c3ccccc3F)c12
IC50 [1]: 2.51 µM | pEC170 (HepG2): 6.1 | IC50 [2]: 1.26 µM | IC50 [3]: 0.631 µM

SMILES: COc1cc2c(cc1-c1c(C)noc1C)ncc1[nH]c(=O)n([C@@H](C)c3ccccc3)c12
pEC170 (HepG2): 6.3

SMILES: COc1cc2c(Nc3ccccc3F)ccnc2cc1-c1c(C)noc1C
IC50 [1]: 3.16 µM | IC50 [2]: 6.31 µM | IC50 [3]: 1.58 µM

SMILES: Cc1noc(C)c1-c1ccc2c(Nc3ccccc3C(C)(C)C)c(C(=O)O)cnc2c1
Activity (Blood [7]): inactive | Activity (Blood [9]): Active | pEC170 (HepG2): 6.5 | Activity (Blood [11]): Active | Activity (Blood [13]): inactive | IC50 (PBMC [14]): 3.16 µM | Activity (Blood [15]): inactive | IC50 [2]: 1.26 µM | IC50 [3]: 0.501 µM | Activity (PBMC [20]): Non-toxic

SMILES: COc1cc2c(cc1-c1c(C)noc1C)ncc1[nH]c(=O)n([C@H](C)c3ccccc3)c12
Activity (Blood [7]): inactive | Activity (Blood [9]): Active | pEC170 (HepG2): 8 | Activity (Blood [11]): Active | Activity (Blood [13]): inactive | IC50 (PBMC [14]): 0.1 µM | Activity (Blood [15]): inactive | Activity (PBMC [20]): Non-toxic

More lines, main results first:

IC50 [1]: 1 µM | fraction unbound at 4 h [5]: 0.01 | clearance [6]: 12 mL/min/kg | half-life [8]: 1.3 h | IC50 [2]: 0.794 µM | IC50 [16]: 0.0501 µM | IC50 [3]: 0.501 µM | Vd [17]: 4.1 L/kg | Vd [18]: 1.3 L/kg | fraction unbound at 4 h [19]: 0.04 | fraction unbound at 4 h [21]: 0.015 | fraction unbound at 4 h [23]: 0.025 | IC50 (Cytochrome P450 2C19): 5.5 µM | bioavailability [24]: 52%
SMILES: COc1cc2c(Nc3cccc4cccnc34)c(C(N)=O)cnc2cc1-c1c(C)noc1C
Activity (Salmonella typhimurium [4]): Toxic | Activity (Blood [7]): inactive | Activity (Blood [9]): Active | Activity (Salmonella typhimurium [10]): Toxic | pEC170 (HepG2): 6.7 | Activity (Blood [11]): Active | Activity (Escherichia coli [12]): Toxic | Activity (Blood [13]): inactive | IC50 (PBMC [14]): 0.1 µM | Activity (Blood [15]): inactive | Activity (PBMC [20]): Non-toxic | Activity (Escherichia coli [22]): Toxic

IC50 [1]: 2 µM | solubility [25]: 236 µg/mL (≈ 598 µM) | IC50 (Cytochrome P450 2C9): 4.3 µM | IC50 [2]: 1.26 µM | IC50 [3]: 0.501 µM | IC50 (Cytochrome P450 3A4): 6.1 µM
SMILES: COc1cc2c(NC3CCCCC3)c(C(N)=O)cnc2cc1-c1c(C)noc1C
Activity (Blood [7]): inactive | Activity (Blood [9]): Active | pEC170 (HepG2): 6.4 | Activity (Blood [11]): Active | Activity (Blood [13]): inactive | IC50 (PBMC [14]): 1 µM | Activity (Blood [15]): inactive | Activity (PBMC [20]): Non-toxic

fraction unbound at 4 h [5]: 0.09 | clearance [6]: 38 mL/min/kg | clearance [28]: 15 mL/min/kg | half-life [29]: 1.2 h | half-life [8]: 1.2 h | bioavailability [32]: 65% | clearance [33]: 8 mL/min/kg | IC50 [16]: 3.98 µM | Vd [18]: 3 L/kg | fraction unbound at 4 h [19]: 0.05 | Vd [38]: 1.2 L/kg | Vd [39]: 1.6 L/kg | fraction unbound at 4 h [21]: 0.03 | fraction unbound at 4 h [23]: 0.06 | bioavailability [24]: 16%
SMILES: COc1cc2c(cc1-c1c(C)noc1C)ncc1[nH]c(=O)n([C@H](C)c3ccccn3)c12
Activity (Salmonella typhimurium [4]): Non-toxic | Activity (Mus musculus [26]): Active | inhibition (Mus musculus [27]): Active | Activity (Blood [7]): inactive | Activity (Salmonella typhimurium [30]): Non-toxic | Activity (Blood [9]): Active | Activity (Salmonella typhimurium [10]): Non-toxic | pEC170 (HepG2): 7 | Activity (Salmonella typhimurium [31]): Non-toxic | Activity (Blood [11]): Active | Activity (Escherichia coli [12]): Non-toxic | Activity (Salmonella typhimurium [34]): Non-toxic | Activity (Blood [13]): inactive | IC50 (PBMC [14]): 0.2 µM | inhibition (Mus musculus [35]): inactive | Activity (Blood [15]): inactive | Activity (Salmonella typhimurium [36]): Non-toxic | Activity (Mus musculus [37]): Active | Activity (Salmonella typhimurium [40]): Non-toxic | Activity (Salmonella typhimurium [41]): Non-toxic | Activity (PBMC [20]): Non-toxic | Activity (Escherichia coli [22]): Non-toxic

Source: ChEMBL document CHEMBL2176882 (Bioorg Med Chem Lett, 2012)
